Data from patent US9486425B2 (NESTEC S.A., priority 2012, dated 2016).

Experiments:
[1] = tested on: Glutathione-S-transferase, pi 1 (Gstp1); assay: mRNA expression in hepatocytes (qPCR): glutathione-S-transferase; type: cell-based; settings: rat hepatocytes, 24 h, dose range (FIG. 5)
Protocol: (§1) Hepatocytes were isolated from Sprague-Dawley male rats (190-240 g) by liver perfusion. […] After overnight incubation, the medium was removed and 2.5 ml of fresh medium containing the test substances was added. The dishes were incubated for 24 h at 37° C. in a 5% CO2/air incubator. Cell lysates for the RNA extraction were obtained by adding 400 μl of RNA lysis buffer (RA-1 with 1% v/v β-mercaptoethanol) to the cells and vigorously mixed (vortex). Total RNA was extracted from the cell lysates according manufacturer's instructions (Nucleospin RNA2 kit, Macherey-Nagel, Düren, Germany) with minor changes: 20 min of DNASE treatment and 60 μl of elution volume. Total RNAs were quantified using Ribogren kit (Molecular probes) and the quality was evaluated by capillary electrophoresis using Bionalyzer (Agilent). Reverse transcription reactions were performed with the Multiscribe reverse transcriptase enzyme in the presence of random hexamers primers (Reverse Transcription Reagent from Applied Biosystems). Gene expression quantification was performed using pre-designed TaqMan probes (Applied Biosystems). Each qPCR reaction was done in technical duplicates on 50 ng of cDNA. The arithmetic mean of two housekeeping genes (GAPDH and β-Actin) was used for normalization. The mRNA gene expression calculations are based on the ΔΔCt method: […] [table]

[2] = tested on: NAD(P)H dehydrogenase quinone (Nqo1); assay: mRNA expression in hepatocytes (qPCR): NAD(P)H dehydrogenase quinone; type: cell-based; settings: rat hepatocytes, 24 h, dose range (FIG. 5)
Protocol: as §1

[3] = tested on: THP-1 blue cells; assay: THP-1 blue cell viability (Cell Titer-Glo); type: cell-based, human
Protocol: 200000 cells/well were seeded in 100 μl of culture medium in 96 well flat bottom transparent plates. […] 20 μl of culture media containing (or not) LPS 055:B5 (Sigma) (100 ng/ml final) was added and the plates were incubated for 16 hours at 37° C. in a 5% CO2/air incubator.
Cell culture supernatants were carefully transferred to 96 well-plates for NF-κB activity measurement which is proportional to the level of secreted alkaline phosphatase. Briefly, 100 μl of supernatants were mixed with 150 μl of QuantiBlue (Invivogen) in a 96 well-plates incubated for 3 h at 37° C. before OD measurements at 620 nm with Sunrise microplate reader (Tecan, Mannedorf, Switzerland). Cell viability was determined using Cell Titer-Glo kit as described above.

[4] = tested on: Heme oxygenase 1 (HO-1); assay: mRNA expression in hepatocytes (qPCR): heme oxygenase 1; type: cell-based; settings: rat hepatocytes, 24 h, dose range (FIG. 5)
Protocol: as §1

[5] = tested on: hepatocytes; assay: Hepatocyte viability (LDH measurement); type: cell-based; settings: rat hepatocytes, 24 h
Protocol: Hepatocytes were isolated from Sprague-Dawley male rats (190-240 g) by liver perfusion. Cells were seeded at 2500000 cells/dish (6 cm) in 2.5 ml of Williams'E medium supplemented with 2 mM L-glutamine, 10 mM Hepes (Sigma), 1% ITS+, 1% Penicillin/Streptomycin (Sigma) and 25 nM Dexamethasone (Sigma). After overnight incubation, the medium was removed and 2.5 ml of fresh medium containing the test substances was added. The dishes were incubated for 24 h at 37° C. in a 5% CO2/air incubator.
At the end of the incubation, the cell supernatants were harvested for LDH (lactate dehydrogenase) measurement, which is an indicator of cell viability. Cells were washed once with 2.5 ml of cold PBS 1× then detached from the Petri dishes by scraping. Cells were then transferred to 1.5 ml Eppendorf tubes which were centrifuged for 1 min at 4° C. at 7000 g.

[6] = tested on: HT-29 clone 34 cells; assay: HT-29 clone 34 cell viability (ATP, Cell Titer-Glo); type: cell-based, human
Protocol: 10000 cells/well were seeded in 200 μl of culture medium in flat bottom white border 96 well plates (Greiner Bio One, Kremsmuenster, Austria). […] 20 μl of experimental medium containing (or not) LPS 055:B5 or rhTNF-α (100 and 10 ng/ml final, respectively) was added and the plates were incubated for 24 hours at 37° C. in a 5% CO2/air incubator.
Cell viability was determined by measuring ATP using Cell Titer-Glo kit (Promega). Briefly, remaining adherent HT-29 clone 34 cells were incubated for 10 min at room temperature under horizontal shaking (250 rpm) with 120 μl of Cell Titer-Glo reagent (pre-diluted twice in 1×PBS) and the luminescence was measured using Polarstar microplate reader (BMG, Offenburg, Germany) for 1000 ms with a gain value set to 3500.

[7] = tested on: Glutathione peroxidase 1 (Gpx1); assay: mRNA expression in hepatocytes (qPCR): glutathione peroxidase 1; type: cell-based; settings: rat hepatocytes, 24 h, dose range (FIG. 5)
Protocol: as §1

[8] = tested on: Nrf2; assay: Nrf2 reporter assay (ARE-luciferase, AREc32 cells); type: cell-based; settings: 24 h, dose range 0 to 200 μM (FIG. 3)
Protocol: Activation of Nrf2 was measured using an Nrf2 reporter assay. This assay is based on the AREc32 cell line, from CRX biosciences (Dundee, Scotland), a stably transfected MCF7 (breast adenocarcinoma) cell line that contains a luciferase gene construct under the control of the ARE. […] Luciferase activity is determined using a luciferase kit form Promega (Madison, Wis.). The luciferase activity is proportional to the activation of Nrf2.
For each run the luciferase activities, measured in Relative Light Units (RLU), of all the wells were normalized with the mean of the luciferase activity of the cells only of all the plates. Among all the samples tested the normalization procedure was found not to affect the data and this observation permits the comparison of samples measured in different runs.
For each sample the Nrf2 activation was calculated as follows: […]
The luciferase content per sample allows a semi quantification of the Nrf2 activation by reflecting the amount of the Nrf2 activating molecule. […]

[9] = tested on: Glutathione reductase (Gsr); assay: mRNA expression in hepatocytes (qPCR): glutathione reductase; type: cell-based, rat; settings: liver cells (hepatocytes)
Protocol: as §1

[10] = tested on: UDP-glucuronosyltransferase (UGT); assay: mRNA expression in hepatocytes (qPCR): UDP-glucuronosyltransferase; type: cell-based; settings: rat hepatocytes, 24 h, dose range (FIG. 5)
Protocol: as §1

[11] = tested on: AREc32 cells; assay: AREc32 cell viability (ATP quantification, Cell Titer-Glo); type: cell-based; settings: 24 h
Protocol: To determine the Nrf2 activation the samples were tested on AREc32 cells (seeded in 96 well plates) using 10 independent dilutions (1/2, 1/4, 1/6, 1/10, 1/15, 1/20, 1/25, 1/30, 1/40 and 1/50) and incubated for 24 hours at 37° C. in a 5% CO2/air incubator. The luciferase activity and the cell viability (ATP measurements) were determined using the Luciferase and Cell Titer-Glo kits from Promega.
The cell viability was also measured using a cell Titer-Glo kit (ATP quantification).

[12] = tested on: Glutathione peroxidase 2 (Gpx2); assay: mRNA expression in hepatocytes (qPCR): glutathione peroxidase 2; type: cell-based; settings: rat hepatocytes, 24 h, dose range (FIG. 5)
Protocol: as §1

[13] = tested on: NF-κB; assay: NF-κB activity in HT-29 clone 34 cells (SEAP reporter and IL-8); type: cell-based, human
Protocol: Two in-vitro systems were used: human colonic cells (HT-29 clone 34) and human monocytes/macrophages (THP-1 blue cells). The human colonic adenocarcinoma HT-29 clone 34 cell line (passage 42-50) are adherent cells stably transfected with a NF-κB/SEAP reporter plasmid. They were cultured in DMEM high glucose (4.5 g/L) (Invitrogen) containing 1% of stable L-glutamine and supplemented with 10% of heat inactivated (one hour at 56° C.) Foetal Calf Serum (FCS) (Bioconcept, Allschwil, Switzerland), 1% of Penicillin/Streptomycin (Sigma) and 500 μg/ml of Geneticin (PAA, Pasching, Austria) at 37° C. in a 5% CO2/air incubator. Culture medium was renewed every two days until the cell monolayer reached ˜90% confluence. Cells were sub-cultured using 1× Trypsin/EDTA (Sigma). 10000 cells/well were seeded in 200 μl of culture medium in flat bottom white border 96 well plates (Greiner Bio One, Kremsmuenster, Austria). […] Cell culture supernatants were then collected for measurement of NF-κB activity (determination of secreted alkaline phosphatase and IL-8 production) using Phosphalight (Applied Biosystems) and IL-8 singleplex (Meso Scale, Gaithersburg, Md.) kits, respectively.

[14] = tested on: Glutamate cysteine ligase, catalytic subunit (Gclc); assay: mRNA expression in hepatocytes (qPCR): glutamate cysteine ligase catalytic subunit; type: cell-based; settings: rat hepatocytes, 24 h, dose range (FIG. 5)
Protocol: as §1

## CC(=O)/C=C/C(=O)O [4-oxo-2-pentenoic acid]
[1]
  mRNA expression of glutathione-S-transferase: increased
[2]
  mRNA expression of NAD(P)H dehydrogenase quinone: increased
[3]
  doses toxic to cells: higher than 75 μM
[4]
  mRNA expression of heme oxygenase 1: increased
[5]
  cell viability (LDH measurements): not affected
[6]
  doses showing a decrease in cell viability: > 50 µM
[7]
  mRNA expression of glutathione peroxidase 1: not affected
[8]
  Nrf2 activation: strongly activate Nrf2 in a dose dependent manner
[9]
  gene expression of glutathione reductase: activated gene expression
[10]
  mRNA expression of UDP-glucuronosyltransferase (UGT): increased
[11]
  doses at which viability of AREc32 cells was not affected: lower than 70 μM
[12]
  mRNA expression of glutathione peroxidase 2: not affected
[13]; HT-29 clone 34 cells stimulated with LPS
  dose giving the best inhibition of NF-κB activity (SEAP and IL-8): 50 µM
[13]; HT-29 clone 34 cells stimulated with LPS (100 ng/ml), 4 h pre-incubation, 24 h
  inhibition of NF-κB activity (SEAP and IL-8 secretion): inhibits NF-κB activity in a dose dependent manner
[13]; HT-29 clone 34 cells, no LPS, doses tested 3 to 400 μM
  NF-κB activity (SEAP or IL-8) in the absence of LPS: no NF-κB activity was observed
[14]
  mRNA expression of glutamate cysteine ligase catalytic subunit: increased
